Assay results published in patent US20230234936A1, “COMPOUND FOR TARGETING AND DEGRADING PROTEIN, AND PREPARATION METHOD THEREFOR AND USE THEREOF” (SHANGHAI LEADINGTAC PHARMACEUTICAL CO., LTD., priority 2020, published 2023).

Columns and labels:
[1] = biological target: T1, IRAK4 protein in THP-1 cells (Homo sapiens, UniProt Q9NWZ3); assay: Degradation of IRAK4 in THP-1 cells (Western blot); format: cell-based; conditions: 24 hours, compound 1-3000 nM
T1 construct: endogenous in cells; host or cells: THP-1
T1 sequence (Q9NWZ3 1-460): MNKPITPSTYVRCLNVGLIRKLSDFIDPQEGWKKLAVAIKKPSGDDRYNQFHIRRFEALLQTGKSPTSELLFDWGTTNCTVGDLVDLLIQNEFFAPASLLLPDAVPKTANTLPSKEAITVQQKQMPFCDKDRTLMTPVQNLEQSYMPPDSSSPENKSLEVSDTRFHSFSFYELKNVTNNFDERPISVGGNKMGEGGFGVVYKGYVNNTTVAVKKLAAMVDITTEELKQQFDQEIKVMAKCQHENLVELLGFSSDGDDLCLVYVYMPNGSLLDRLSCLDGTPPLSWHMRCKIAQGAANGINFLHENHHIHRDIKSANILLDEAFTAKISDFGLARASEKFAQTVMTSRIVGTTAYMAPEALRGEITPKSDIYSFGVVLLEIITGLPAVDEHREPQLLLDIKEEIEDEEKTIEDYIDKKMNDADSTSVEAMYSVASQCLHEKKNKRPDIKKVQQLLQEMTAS
Method: Each well of the 24-well cell culture plate was inoculated with 0.95 mL THP-1 cells (stem cell bank of Chinese academy of sciences) with a cell density of 5×10^5 cells/well. The cell plate was placed in a 5% carbon dioxide incubator and cultured overnight at 37° C., then 50 μL compound in dimethyl sulfoxide was added. The final concentration of the compound was in the range of 1-3000 nM. After continuous cultivation for 24 hours, the cells were collected into a 1.5 mL centrifuge tube, centrifuged at 1000 rpm and 4° C. for 5 minutes. Cell precipitation was cleaned twice with 1-DPBS, resuspended cells were lysed with 200 μL lysate (cell lysate was Western and IP cell lysate (Beyotime), supplemented with 1 mM mixture of phenylmethylsulfonyl fluoride and protease inhibitor (Beyotime)), left on ice for 30 minutes, then centrifuged at 14000 g at 4° C. for 10 minutes, and the supernatant was taken to detect IRAK4 protein level by Western blot.
Western blot method: The total protein concentration in the supernatant of cell lysis was determined by BCA protein quantitative kit (Tiangen). According to the concentration of total protein detected by BCA, the supernatant was adjusted to 0.2 μg/μL with PBS and 5× SDS-PAGE protein loading buffer (Beyotime), bathed in water at 100° C. for 10 minutes, then placed in ice bath for 5 minutes, centrifuged at 14000 g and 4° C. for 5 minutes, and then collected as WB loading sample. Prefabricated glue (KeyGEN) was used for protein electrophoresis with a loading amount of 10 μL (total protein 2 μg). After Tris-MOPS-SDS electrophoresis solution (Adamas), 120V constant pressure electrophoresis was performed. After electrophoresis, the protein on the adhesive strip was transferred to PVDF membrane with a constant current of […] for 50 minutes. After the membrane was transferred, the membrane was placed in 1×QuickBlock blocking buffer (Beyotime) and incubated for 30 minutes at room temperature. After blocking, PVDF membranes were incubated with IRAK4 primary antibody (Abcam) overnight at 4°, the membranes were washed with TBST buffer (2.4 g Tris, 8.8 g NaCl, 1.5 mL Tween 20, pH adjusted to 7.4, constant volume to 1 L) for 30 minutes, incubated with secondary antibody (Abcam) for 2 hours at room temperature, finally incubated with Clarity Western ECL Substrate(BIO-RAD) for 5 minutes for luminescence development, chemiluminescence imaging system (Clinx, chemiScope 6200 Touch) for development and protein mapping photography. The protein map was analyzed by Clinx chemiluminescence analysis software for grayscale values. Using the formula: grayscale correction value=(target protein grayscale value/corresponding internal reference grayscale value)×10^3, the grayscale correction value of each sample was calculated. The degradation rate was calculated by comparing with the grayscale correction value of the control group. Furthermore, DC50 and Dmax values of the compound were obtained by the nonlinear curve fitting with the logarithmic concentration-inhibition rate by GraphPad Prism 7.

[2] = biological target: T2, IRAK4 kinase (Homo sapiens, UniProt Q9NWZ3); assay: IRAK4 kinase activity test (KinEASE-STK S1 HTRF kit); format: biochemical; conditions: 2.5 nM kinase, 1 μM biotinylated polypeptide substrate, 7 μM ATP, 37° C. 120 min
T2 sequence (Q9NWZ3 1-460): T1 sequence (Q9NWZ3 1-460)
Method: KinEASE-STK S1 serine/threonine kinase kit (Cisbio) was used to detect the inhibitory effect of the compound on IRAK4 kinase activity. The specific method was: the compound was dissolved in dimethyl sulfoxide, and then it was diluted with the buffer solution of the kit by equal gradient to make the final concentration range of the tested compound in the reaction system 10000 nM-0.038 nM, then 2.5 nM kinase, 1 μM biotinylated polypeptide substrate and 7 μM adenosine triphosphate (ATP) were added in sequence and incubated at 37° C. for 120 min. Subsequently, anti-phosphorylated serine/threonine antibody coupled with europium element compound and modified XL665 streptavidin were added to the reaction system to terminate the reaction. After incubating at room temperature for 1 h, the fluorescence intensity of each well at the emission wavelength of 620 nm and 665 nm and the excitation wavelength of 337 nm was determined in HTRF mode on the microplate reader EnVision(PerkinElmer), the ratio value was calculated using the formula Ratio=(665 nm/620 nm)×10^4. By comparing with the fluorescence intensity ratio of the control group, the inhibition rate of the compound at each concentration was calculated, and then the IC50 value of the compound was obtained by fitting the nonlinear curve with the logarithmic concentration-inhibition rate by GraphPad Prism 7.

Row | Compound | DC50 [1] [nM] | Dmax [1] [%] | IC50 [2] [nM]
1 | COc1ccc(C(=O)N2CCC(CCCN3CCC(n4cc5cc(NC(=O)c6cccc(C(F)(F)F)n6)c(C(C)(C)O)cc5n4)CC3)CC2)cc1N1CCC(=O)NC1=O [Example 22, N-(2-(1-(3-(1-(3-(2,4-dioxotetrahydro-pyrimidin-1 (2H)-yl)-4-me-thoxybenzoyl)piperidin-4-yl)propyl)piperidin-4-yl)-6-(2-hydroxyprop-2-yl)-2H-inda-zol-5-yl)-6-(trifluoromethyl) pyridinecarbox-amide] | 16.4 | 94.3 | 11.7
2 | COc1cc2nn(C3CCN(CCCCN4CCC5(CC4)CCN(C(=O)c4ccc(OC)c(N6CCC(=O)NC6=O)c4)CC5)CC3)cc2cc1NC(=O)c1cccc(C(F)(F)F)n1 [Example 3] | 23.1 | 90.5 | 2.7
3 | COc1cc2nn([C@H]3CC[C@H](COCCC4CCN(C(=O)c5ccc(Cl)c(N6CCC(=O)NC6=O)c5)CC4)CC3)cc2cc1NC(=O)c1cccc(C(F)(F)F)n1 [Example 64, N-(2-((1r,4r)-4-((2-(1-(4-chloro-3-(2,4-dioxotetrahydro-pyrimidin-1 (2H)-yl)benzoyl)piperidin-4-yl)ethoxy)methyl)cyclohexyl)-6-methoxy-2H-indazol-5-yl)-6-(trifluoro-methyl) pyridinecarbox-amide] | 13.9 | 95.6 | 48
4 | COc1cc2nn(C3CCN(CCOC4CCN(C(=O)c5ccc(OC)c(N6CCC(=O)NC6=O)c5)CC4)CC3)cc2cc1NC(=O)c1cccc(C(F)(F)F)n1 [Example 20] | 12.2 | 93.7 | 9.5
5 | COc1ccc(C(=O)N2CCC3(CCN(CCN4CCC(n5cc6cc(NC(=O)c7cccc(C(F)(F)F)n7)c(C(C)(C)O)cc6n5)CC4)CC3)CC2)cc1N1CCC(=O)NC1=O [Example 10, N-(2-(1-(2-(9-(3-(2,4-dioxotetrahydropyrimidin-1 (2H)-yl)-4-methoxybenzoyl)-3,9-diazaspiro[5.5]undec-3-yl)ethyl)piperidin-4-yl)-6-(2-hydroxyprop-2-yl)-2H-indazol-5-yl)-6-(trifluoromethyl) pyridinecarboxamide] | 2.3 | 100 | 6.5
6 | COc1cc2nn(C3CCN(CCC4CCN(C(=O)c5ccc(OC)c(N6CCC(=O)NC6=O)c5)CC4)CC3)cc2cc1NC(=O)c1cccc(C(F)(F)F)n1 [Example 6, N-(2-(1-(2-(1-(3-(2,4-dioxotetrahydropyrim-idin-1 (2H)-yl)-4-methoxyben-zoyl)piperidin-4-yl)ethyl)piperidin-4-yl)-6-me-thoxy-2H-indazol-5-yl)-6-(trifluoromethyl) pyridinecarboxamide] | 24 | 91.7 | 7.6
7 | CC(C)(O)c1cc2nn(C3CCN(CC4CC5(CCN(C(=O)c6ccc(Cl)c(N7CCC(=O)NC7=O)c6)CC5)C4)CC3)cc2cc1NC(=O)c1cccc(C(F)(F)F)n1 [Example 36, N-(2-(1-((7-(4-chloro-3-(2,4-dioxotetrahydro-pyrimidin-1 (2H)-yl)benzoyl)-7-azaspiro [3.5]non-2-yl)methyl)piperdin-4-yl)-6-(2-hydroxyprop-2-yl)-2H-indazol-5-yl)-6-(trifluoro-methyl) pyridinecarbox-amide] | 4 | 92.5 | 11.8
8 | CCN(C1CCC2(CC1)CCN(C(=O)c1ccc(Cl)c(N3CCC(=O)NC3=O)c1)CC2)[C@H]1CC[C@H](n2cc3cc(NC(=O)c4cccc(C(F)(F)F)n4)c(OC)cc3n2)CC1 [Example 60] | 5.1 | 93.2 | 6.43
9 | CC(C)(O)c1cc2nn(C3CCN(CCN4CCC5(CC4)CCN(C(=O)c4ccc(Cl)c(N6CCC(=O)NC6=O)c4)CC5)CC3)cc2cc1NC(=O)c1cccc(C(F)(F)F)n1 [Example 17, N-(2-(1-(2-(9-(4-chloro-3-(2,4-dioxotetrahydro-pyrimidin-1 (2H)-yl)benzoyl)-3,9-diazaspiro[5.5]undec-3-yl)ethyl)piperidin-4-yl)-6-(2-hydroxyprop-2-yl)-2H-indazol-5-yl)-6-(trifluoro-methyl) pyridinecarbox-amide] | 5.3 | 96.9 | 7.9
